According to publication PMC4685742 (Nature chemical biology, 2015):

How the values were obtained:
iridoid synthase (CrISY) [1] = target: T1, iridoid synthase (CrISY) (Catharanthus roseus, UniProt K7WDL7, D87N); test: co-crystal structure at […] Å; format: biochemical
[2] = target: T2, iridoid synthase (CrISY) G150A (Catharanthus roseus, UniProt K7WDL7, D87N/G150A); test: co-crystal structure; format: binding
T2 sequence (K7WDL7 23-388 D87N/G150A): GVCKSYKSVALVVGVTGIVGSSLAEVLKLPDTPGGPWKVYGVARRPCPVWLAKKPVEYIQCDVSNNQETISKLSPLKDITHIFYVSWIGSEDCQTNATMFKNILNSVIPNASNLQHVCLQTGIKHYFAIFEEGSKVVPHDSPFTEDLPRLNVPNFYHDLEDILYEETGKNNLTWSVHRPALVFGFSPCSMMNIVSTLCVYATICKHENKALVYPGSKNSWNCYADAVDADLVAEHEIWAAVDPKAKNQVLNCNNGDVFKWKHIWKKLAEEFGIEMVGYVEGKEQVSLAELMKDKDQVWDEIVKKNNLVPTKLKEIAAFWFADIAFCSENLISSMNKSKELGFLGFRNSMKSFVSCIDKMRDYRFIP

iridoid synthase (CrISY) [3] = target: T1, iridoid synthase (CrISY); test: co-crystal structure at […] Å; format: binding

T1 sequence (K7WDL7 23-388 D87N): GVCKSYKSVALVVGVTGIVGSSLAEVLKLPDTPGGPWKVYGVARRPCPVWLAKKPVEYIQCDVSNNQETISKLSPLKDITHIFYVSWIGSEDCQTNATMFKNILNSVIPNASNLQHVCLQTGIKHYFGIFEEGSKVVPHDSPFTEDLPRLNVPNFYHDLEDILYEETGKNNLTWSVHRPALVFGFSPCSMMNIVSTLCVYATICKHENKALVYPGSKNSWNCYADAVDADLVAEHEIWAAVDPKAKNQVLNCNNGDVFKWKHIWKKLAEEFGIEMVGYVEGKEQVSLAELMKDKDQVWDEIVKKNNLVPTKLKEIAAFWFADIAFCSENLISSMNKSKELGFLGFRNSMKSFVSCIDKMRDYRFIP

| Structure (SMILES) | Ki (iridoid synthase (CrISY) [1]) [µM] | co-crystal structure [2] | co-crystal structure at 1.40 Å (iridoid synthase (CrISY) [3]) |
| --- | --- | --- | --- |
| CC(C)=CCC/C(C)=C/C(=O)O [GEA, geranic acid] | ~4 | – | – |
| NC(=O)c1ccc[n+]([C@@H]2O[C@H](COP(=O)(O)OP(=O)(O)OC[C@H]3O[C@@H](n4cnc5c(N)ncnc54)[C@H](OP(=O)(O)O)[C@@H]3O)[C@@H](O)[C@H]2O)c1 [NADP+] | – | The structure of CrISY^G150A was solved with NADP^+ bound (PDB code 5DCY) | CrISY’s structure was solved in its apo form and with NADP^+ bound (PDB codes 5DCW and 5DCU, respectively) |
